From patent US20240033358A1, “COMBINATION THERAPIES WITH CHIMERIC ANTIGEN RECEPTOR (CAR)-EXPRESSING CELLS” (Novartis AG, priority 2020, published 2024)

Experiments:
[1] = system: SuDHL6 cells implanted subcutaneously; test: In vivo double-hit lymphoma model: tumor volume after CART19 cells and/or BCL2 inhibitor; set-up: species or system NOD scid gamma (NSG) mice; details: treatment from day 15 post-implant; venetoclax 100 mg/kg daily; 1e6 CART19 cells; versus PBS vehicle, UTD or CART19 alone
Protocol: NOD scid gamma (NSG) mice were implanted subcutaneously with a dose of 5e6 SuDHL6 cells/mouse. At day 15 post-implant, mice were randomized into treatment groups, which included: PBS vehicle negative control (FIG. 10A); PBS vehicle and 100 mg/kg of the BCL2 inhibitor, venetoclax (FIG. 10A); 1.45e6 untransduced T cells containing no CAR (UTD) (FIG. 10B); 1.45e6 untransduced T cells containing no CAR (UTD) and 100 mg/kg of the BCL2 inhibitor, venetoclax (FIG. 10B); 1e6 CART19 cells (which were at 68% positivity, total cells injected were 1.45e6) (FIG. 10C); and 1e6 CART19 cells and 100 mg/kg of the BCL2 inhibitor, venetoclax (FIG. 10C). The BCL2 inhibitor was administered daily until sacrifice. Tumor growth was monitored in these mice every three days. Tumor volume was quantified by caliper measurement at each timepoint sampled (FIGS. 10A-C).

[2] = system: adult patients with r/r DLBCL; test: JULIET phase 2 trial of tisagenlecleucel: efficacy outcomes (BOR, M3 response, DOR, PFS, OS), safety and B-cell recovery, overall and by subgroup (MYC, DH/TH, TME, pre-infusion LDH); type: in vivo, human; details: for probability of PFS: MYC(−) patients with normal pre-infusion LDH (n=16); for Survival probability: all infused patients
Excerpt: Methods: JULIET (NCT02445248) was a global, phase 2 trial of autologous anti-CD19 CAR-T cell therapy in adult patients with r/r DLBCL (relapsed or refractory to ≥2 prior lines of therapy). Median follow-up was 40.3 months. The relationship between MYC overexpression, tumor microenvironment (TME) characteristics (including CD3+ T-cell infiltration, myeloid-derived suppressor cells [MDSCs], and LAG3 expression by fluorescent immunohistochemistry [IHC]), activated B-cell/germinal center B-cell [ABC/GCB] subtype, double/triple-hit (DH/TH) status, and gene mutations including TP53 with efficacy outcomes (best overall response [BOR], response at Month 3 [M3], progression-free and overall survival [PFS/OS]) were assessed. Results: 115 patients received autologous anti-CD19 CAR-T cell infusion. Among patients who were in CR at 6 months, 86% were estimated to maintain the response at 36 months. […] Median OS among all 115 infused patients was 11.1 months (95% CI, 6.6-23.9). […] Median OS of patients with CR (n=37) or PR (n=7) at M3 was not reached; 80% of patients with complete response (CR) had OS benefit≥20 months. […] Of the 23 patients with ongoing CR and B-cell count available, 11 had CD19+ B cells recovered back to normal (80 cells/μL) after 1 year, with similar patterns observed for CD20+ and CD22+ B cells (FIG. 21). The 24 month and 42 month PFS was 33% and 31% respectively (FIG. 16).
Of the 111 patients whose baseline tumor biopsies were tested for MYC expression by immunohistochemistry (IHC), 73 patients were positive for MYC expression (MYC(+) defined as >40% of cells expressing MYC, as measured by IHC) and 38 patients were negative for MYC expression (MYC(−) defined as <40% of cells expressing MYC, as measured by IHC). BOR rates for MYC(+) and MYC(−) patients were 44% (95% CI, 32-56) and 63% (95% CI, 46-78), respectively; M3 response rates were 30% (95% CI, 20-42) and 50% (95% CI, 33-67), respectively (Table 6, and FIG. 14). By month 6, 18/38 (47%) MYC(−) patients were CR/PR compared to 18/73 (25%) of MYC(+) patients. DOR was in a plateau phase at 79% starting in MYC(−) patients (n=24) at 6 months. […] Thus, MYC(+) patients tended to have shorter PFS and OS compared with MYC(−) patients and a high-baseline of MYC expression in patients prior to treatment was associated with worse PFS and OS (FIGS. 4A-4C).
Of the 73 MYC(+) patients, 70 of them were also tested for rearrangements in MYC, BCL2, and BCL6 by FISH in order to identify double hit (DH) (MYC/BCL2 or MYC/BCL6) or triple hit (TH) (MYC/BCL2/BCL6) lymphomas. Of the 70 MYC(+) patients, 20 had DH/TH lymphoma and a BOR rate of 40% (95% CI, 19-64). BOR rate for patients that were MYC(+) but non-DH/TH lymphoma was 48% (95% CI, 34-63).
In the TME analysis of baseline biopsy, a low frequency of tumor infiltrating CD3+ T cells (cutoff of ≤3%; n=16) was associated with shorter median DOR, PFS (2.2 months [95% CI, 0.92-2.8] and 4.2 months [95% Cl, 2.6-21], respectively) and OS (7 months [95% CI, 1.8-12] and 21 months [95% CI, 6.7-NE], respectively) compared with patients with ≥3% CD3+ T cells (n=64) (FIGS. 13A-13C). At month 6, only 2/16 (13%) of patients with <3% tumor-infiltrating CD3+ T cells in baseline tumors were responders compared to 23/36 (64%) responders with >3% tumor infiltrating CD3+ T cells. Patients with low or no (≤3%) tumor-infiltrating CD3+ T cells (n=16) in baseline tumor biopsies were enriched with non-responders (FIG. 22).
Patients with the highest frequency of LAG3+CD3+ cells out of the tumor infiltrating CD3+ T cell population (cutoff of >20%; n=12) at baseline were mostly non-responders at Month 3 (FIG. 23) and all 12 patients with >20% LAG3+CD3+ cells (out of the tumor infiltrating CD3+ T cells) were non-responders at Month 6.
The probability of PFS in MYC(−) patients with normal LDH (n=16) was 81% at 6 months and stabilized at 75% starting at 12 months.

[3] = LAG3+CD3+ out of CD3+ T cells ≥20% at baseline (n=12)
[4] = MYC(+) DH/TH patients (n = 20), r/r DLBCL, JULIET
[5] = MYC(+) Non-DH/TH patients (n = 50), r/r DLBCL, JULIET
[6] = MYC(−) patients (n = 38), r/r DLBCL, JULIET
[7] = baseline tumor infiltrating CD3+ T cells ≤3% (n=16)
[8] = of patients with a CR at 6 months
[9] = patients with <20% LAG3+CD3+ T cells (n=68)
[10] = patients with ≥3% CD3+ T cells (n=64)

## 4-(4-{[2-(4-chlorophenyl)-4,4-dimethylcyclohex-1-en-1-yl]methyl}piperazin-1-yl)-N-(3-nitro-4-{[(oxan-4-yl)methyl]amino}benzenesulfonyl)-2-{1H-pyrrolo[2,3162yridinedin-5-yloxy}benzamide [venetoclax]
[1]
  tumor growth (tumor volume by caliper): slowed tumor growth

## Tisagenlecleucel
[2]; 24 month
  PFS: 33%
[2]; 42 month
  PFS: 31%
[2]; 61 patients with a response, 95% CI, 10-NE
  median duration of response (DOR): not reached
[2]; [3]
  median OS: 4.3 months
  median PFS: 2.1 months
[2]; [4]
  Best Overall Response (BOR), % (95% CI): 40 (19-64) %
  Response at Month 3 (M3), % (95% CI): 20 (6-44) %
[2]; [5]
  Best Overall Response (BOR), % (95% CI): 48 (34-63) %
  Response at Month 3 (M3), % (95% CI): 36 (23-51) %
[2]; MYC(+) patients
  median DOR: 19 months
  median OS: 7.8 months
  median PFS: 2.5 months
[2]; MYC(+) patients (n = 73)
  Best Overall Response (BOR), % (95% CI): 44 (32-56) %
  Response at Month 3 (M3), % (95% CI): 30 (20-42) %
[2]; MYC(+) patients with DH/TH lymphoma (n=20)
  BOR rate: 40%
[2]; MYC(+) patients, 18/73
  patients CR/PR by month 6: 25%
[2]; MYC(−) patients
  median DOR: not reached
  median OS: 21 months
  median PFS: 6.2 months
[2]; MYC(−) patients (n = 38)
  Best Overall Response (BOR), % (95% CI): 63 (46-78) %
  Response at Month 3 (M3), % (95% CI): 50 (33-67) %
[2]; [6]
  Best Overall Response (BOR), % (95% CI): 63 (46-78) %
  Response at Month 3 (M3), % (95% CI): 50 (33-67) %
[2]; MYC(−) patients (n=24), starting at 6 months
  DOR plateau phase: 79%
[2]; at 6 months
  probability of PFS: 81%
[2]; stabilized starting at 12 months
  probability of PFS: 75%
[2]; MYC(−) patients, 18/38
  patients CR/PR by month 6: 47%
[2]; all 115 infused patients
  median OS: 11.1 months
[2]; among patients who were in CR at 6 months
  patients estimated to maintain the response at 36 months: 86%
[2]; among the 61 patients with a response, at 24 and 30 months
  relapse-free probability: 60.4%
[2]; at 1 month post-treatment
  responses across B-cell lymphoma subsets (MYC positive, MYC negative, DH/TH): comparable
[2]; at 12 months
  Survival probability: 48.2%
[2]; at 24 months
  Survival probability: 40.4%
[2]; at 36 months
  Survival probability: 36.2%
[2]; [7]
  median OS: 7 months
  median PFS: 2.2 months
[2]; median follow-up 40.3 months
  safety signals: No new safety signals
[2]; [8]
  patients with a relapse after 12 months: 1
  patients with relapses after 6 months: 3
[2]; patients MYC(+) but non-DH/TH lymphoma
  BOR rate: 48%
[2]; patients identified as MYC positive by IHC
  patients maintaining longer than a 6 month response: less than 75%
[2]; patients with <3% tumor-infiltrating CD3+ T cells in baseline tumors, 2/16
  responders at month 6: 13%
[2]; [9]
  median OS: 21 months
  median PFS: 4.2 months
[2]; patients with >3% tumor infiltrating CD3+ T cells, 23/36
  responders at month 6: 64%
[2]; patients with CR
  patients with complete response (CR) with OS benefit ≥20 months: 80%
[2]; patients with CR (n=37) or PR (n=7) at M3
  median OS: not reached
[2]; patients with DH/TH lymphoma
  PFS and OS compared with other patients: shorter progression free survival (PFS) and overall survival (OS)
  response rate at M3: 20%
[2]; patients with DH/TH lymphomas and high MYC expression, at 3 months and 6 months
  relapse frequency: appeared to relapse more frequently
[2]; patients with MYC(+) but non-DH/TH lymphoma
  response rate at M3: 36%
[2]; [10]
  median OS: 21 months
  median PFS: 4.2 months
[2]; the 12 patients with >20% LAG3+CD3+ cells out of tumor infiltrating CD3+ T cells
  patients who were non-responders at Month 6: 12
